The values that follow come from ChEMBL document CHEMBL6182910, “Design, Synthesis, and Biological Evaluation of 4-(Difluoromethyl)-1H-imidazole-5-carboxylic Acids/4-(3-Cyanophenoxy)pyrimidine-5-carboxylic Acids as P2Y1 Receptor Antagonists for Ischemic Stroke Treatment” (J Med Chem, 2025).

Data set [1] in a line: Protein binding in rat plasma at 10 uM incubated for 12 hrs by equilibrium dialysis method. The class given is ADME, cell-free. The note with it: read-out: PPB (converted).
Data set [2] can be described thus: AUC in plasma of male Sprague-Dawley rat at 10 mg/kg, iv measured for 0.083 to 24 hrs by LC-MS/MS analysis. The note with it: time 0.083-24 hrs. The class given is ADME, organism-based.
Data set [3] is described as follows: Oral bioavailability male Sprague-Dawley rat at 10 mg/kg measured up to 24 hrs by LC-MS/MS analysis. The class given is ADME, organism-based. Conditions: in vivo.
A short description of data set [4]: Metabolic stability in human liver microsomes assessed as parent compound remaining at 1 uM measured after 3 hrs in presence of NADPH by LC-MS/MS analysis. The class given is ADME, Microsome. The note with it: read-out: Stability. (In general: Liver microsomes are vesicles of endoplasmic reticulum, rich in cytochrome P450 enzymes.)
Data set [5] is described as follows: Half life male Sprague-Dawley rat at 10 mg/kg, po measured up to 24 hrs by LC-MS/MS analysis. The class given is ADME, organism-based. The note with it: in vivo.
In data set [6] the test system is Rattus norvegicus. Description: Neuroprotective activity in MCAO-induced brain damage Sprague-Dawley rat model assessed as reduction in brain infarction size administered intravenously immediately after arterial occlusion measured after 24 hrs by TTC staining based analysis. The class given is functional. The note with it: route iv.
In data set [7] the test system is Rattus norvegicus. Description: Anti-platelet aggregation in Sprague-Dawley rat assessed as inhibition of ADP-induced platelet aggregation at 10 mg/kg, po measured for 15 mins in presence of 2.5 uM ADP by cell counter analysis relative to control. The class given is functional. Conditions: 0.25 h.
A short description of data set [8]: Cmax male Sprague-Dawley rat at 10 mg/kg, po measured up to 24 hrs by LC-MS/MS analysis. The class given is ADME, organism-based. Conditions: in vivo.
In another data set the target is CYP2C19 (Homo sapiens, UniProt P33261). Description: Inhibition of CYP2C19 in human liver microsomes using S-mephenytoin as substrate at 10 uM preincubated for 5 min followed by NADPH addition measured after 120 mins by LC-MS/MS analysis relative to control. The class given is ADME, Microsome. The note with it: probe S-mephenytoin, time 125 min.
Data set [9] is described as follows: MRT (0 to infinity) male Sprague-Dawley rat at 10 mg/kg, po measured up to 24 hrs by LC-MS/MS analysis. Conditions: in vivo. The class given is ADME, organism-based.
Data set [10] relates to Rattus norvegicus. Description: Neuroprotective activity in MCAO-induced brain damage Sprague-Dawley rat model assessed as brain infarction size at 2.5 mg/kg, iv administered immediately after arterial occlusion measured after 24 hrs by TTC staining based analysis (reference value: 43.1 %). The class given is functional.
Data set [11] is described as follows: Antagonist activity at P2Y1 receptor in platelet-rich plasma of male Japanese white rabbit assessed as inhibition of ADP-induced cytosolic Ca2+ level pretreated for 5 mins followed by ADP addition by FLUO-4 AM dye based analysis. The class given is cell-free. The note with it: Oryctolagus cuniculus.
The next data set relates to HT-22. Description: Neuroprotective activity against H2O2-induced oxidative stress in mouse HT-22 cells assessed as cell viability at 10 uM preincubated for 2 hrs followed by H2O2 addition measured after 24 hrs by MTT assay (reference value: 55 +/- 4.6 %). The note with it: time 26 hrs, read-out: Activity. The class given is functional. Background: Tetrazolium assays rely on reduction of a dye to a coloured formazan, in cell work by metabolically active cells.

Data set [12] in a line: Apparent volume of distribution male Sprague-Dawley rat at 10 mg/kg, po measured up to 24 hrs by LC-MS/MS analysis. The class given is ADME, organism-based. The note with it: in vivo.

CYP2C19, sequence (P33261 whole entry): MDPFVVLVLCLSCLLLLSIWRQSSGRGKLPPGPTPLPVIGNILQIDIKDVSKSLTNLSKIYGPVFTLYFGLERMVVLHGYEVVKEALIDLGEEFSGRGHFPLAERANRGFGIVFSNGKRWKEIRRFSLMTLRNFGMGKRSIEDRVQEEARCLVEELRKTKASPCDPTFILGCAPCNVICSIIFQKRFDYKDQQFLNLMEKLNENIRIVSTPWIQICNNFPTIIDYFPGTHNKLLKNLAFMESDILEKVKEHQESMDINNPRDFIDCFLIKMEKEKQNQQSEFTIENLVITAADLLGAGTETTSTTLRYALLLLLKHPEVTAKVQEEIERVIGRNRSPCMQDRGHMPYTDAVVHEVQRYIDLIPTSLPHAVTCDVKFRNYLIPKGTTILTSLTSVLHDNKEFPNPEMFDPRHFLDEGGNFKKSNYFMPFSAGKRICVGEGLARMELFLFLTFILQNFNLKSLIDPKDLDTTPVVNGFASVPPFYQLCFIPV

With `N#Cc1cccc(Oc2nc(-c3cccc(C#N)c3)ncc2C(=O)O)c1`, the fraction unbound at 12 h, 10 µM in data set [1] was 0.046. Also, the AUC – broadly, concentration integrated over time – in data set [2] turned out to be 75200 ng·h/mL. Further, the bioavailability (commonly the share of a dose that reaches the circulation, judged against a reference dose that is usually intravenous) in [3] stood at 4.1%. Moreover, in data set [4], the remaining at 3 h, 1 µM was 76.9%. This molecule yielded a t1/2 in data set [5] of 15.7 min. The ED50 – broadly, the midpoint of the dose-response relation – in the data set on Rattus norvegicus [6] was determined as 4.6 mg/kg. The inhibition in vivo (as a rule, the change of the read-out against control, counted positive when it falls) at 10 mg/kg with Rattus norvegicus [7] turned out to be 66%. Also, the Cmax (usually the highest concentration seen after dosing) in data set [8] (po, 10 mg/kg, 24 h) was 610 ng/mL. Besides, the inhibition (in general, the share of the control response that was lost under treatment) at 2 h, 10 µM on CYP2C19 amounted to 9.7%. In [9], the MRT inf – broadly, a mean duration of stay, worked out from the concentration-time curve – was 18.4 min. Further, the Activity in the data set on Rattus norvegicus [10] was 29.3%. Also, in data set [11], the IC50 – broadly, the concentration that gives 50% inhibition – stood at 500 nM. Besides, the viability at 10 µM with HT-22 stood at 94.7%. In addition, the Vz in data set [12] turned out to be 7.668 L/kg.
In the case of `N#Cc1cccc(-c2nc(C(F)F)c(C(=O)O)n2OCc2csc(N)n2)c1`, the fraction unbound at 12 h, 10 µM in data set [1] is 0.074. The molecule further displayed an AUC in [2] of 14000 ng·h/mL. This molecule also gave a bioavailability in data set [3] of 0.31%. In data set [4], the remaining at 3 h, 1 µM came out at 92.5%. The ED50 with Rattus norvegicus [6] is 8.39 mg/kg. The inhibition in vivo at 10 mg/kg in the data set with Rattus norvegicus [7] is 54.5%. Besides, the Cmax in [8] (male, Sprague-Dawley, read-out: Cmax) amounted to 480 ng/mL. Moreover, the inhibition at 2 h, 10 µM against CYP2C19 was found to be 27.4%. Besides, in the data set with Rattus norvegicus [10], the Activity is on record as 25.6%. The IC50 in data set [11] came to 490 nM. Also, the viability at 10 µM in the data set with HT-22 was found to be 90.7%.
